Source: PubChem BioAssay (NCI)
Several values for one entry are separate records, joined by “and”; a condition that tells them apart may be missing. Identical values can stand only once.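 Five concentrations, 48 hours, 96-well plates. GI50 is the concentration that inhibits growth by half. TGI is the concentration that stops growth completely.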 *1 amine or outer side, *2 acyl side, *3 side chain or, on linkers, in order; H or OH if unused. Where a SMILES comes first, the peptide text is derived from it. Bridges are numbered along the chain shown (N, C = ends). Roman numbers before positions name the chains, in order. [ ]: non-standard residue; d: D form. Actinocin(9to1) = Cc1c2oc3c(C)ccc(C(=O)[*:1])c3nc-2c(C(=O)[*:2])c(N)c1=O; NMeV = CN[CH](C(=O)O)C(C)C; Sar = CNCC(=O)O

Tests used:
Experiment in all cases: inhibition of tumour cell growth, NCI panel, 48 h
SK-MEL-5 melanoma = tested on: SK-MEL-5 melanoma
RXF 393 renal = tested on: RXF 393 renal
HCT-116 colon = tested on: HCT-116 colon
UO-31 renal = tested on: UO-31 renal
SF-539 CNS = tested on: SF-539 CNS
U251 CNS = tested on: U251 CNS
SF-268 CNS = tested on: SF-268 CNS
MDA-MB-435 = tested on: MDA-MB-435
SW-620 colon = tested on: SW-620 colon
SN12C renal = tested on: SN12C renal

| SMILES | TGI (SK-MEL-5 melanoma) | GI50 (RXF 393 renal) [µM] | TGI (RXF 393 renal) | TGI (HCT-116 colon) [µM] | GI50 (UO-31 renal) [µM] | TGI (UO-31 renal) | GI50 (SF-539 CNS) [µM] | TGI (U251 CNS) | TGI (SF-268 CNS) | TGI (MDA-MB-435) [µM] | TGI (SF-539 CNS) [µM] | TGI (SW-620 colon) [µM] | TGI (SN12C renal) [µM] | GI50 (SK-MEL-5 melanoma) | GI50 (SF-268 CNS) [µM] | GI50 (HCT-116 colon) [µM] | GI50 (U251 CNS) [µM] | GI50 (SW-620 colon) [µM] | GI50 (SN12C renal) [µM] | GI50 (MDA-MB-435) [µM] |
| --- | --- | --- | --- | --- | --- | --- | --- | --- | --- | --- | --- | --- | --- | --- | --- | --- | --- | --- | --- | --- |
| Cc1c2oc3c(C)ccc(C(=O)NC4C(=O)NC(Cc5ccccc5)C(=O)N5CCCC5C(=O)N(C)CC(=O)N(C)C(C(C)C)C(=O)OC4C)c3nc-2c(C(=O)NC2C(=O)NC(Cc3ccccc3)C(=O)N3CCCC3C(=O)N(C)CC(=O)N(C)C(C(C)C)C(=O)OC2C)c(N)c1=O (stereo not drawn) (I: TFP[Sar][NMeV] / II: TFP[Sar][NMeV]; ester I:1-I:C, II:1-II:C; linker I:N-II:N via Actinocin(9to1); configuration not given here) | 0.0192 µM and 0.0125 µM | < 0.001 | 0.00952 µM and 0.0394 µM | 0.00736 | 0.0502 | 0.468 µM and 0.31 µM | < 0.001 | 1.06 µM and 1.26 µM | 0.121 µM and 0.528 µM | 0.0222 | – | – | – | – | – | – | – | – | – | – |
| O=C(NNC(=S)Nc1ccccc1)c1nsc2ccccc12 | > 100 µM | – | > 100 µM | > 100 | – | 75.4 µM | – | > 100 µM | > 100 µM | – | 97.8 | > 100 | > 100 | – | – | – | – | – | – | – |
| CC1C(NNC(N)=O)Oc2cc3c(cc2C1c1ccccc1O)OCO3 (stereo not drawn) | > 100 µM | – | 84.6 µM | 76.8 | – | > 100 µM | – | > 100 µM | > 100 µM | 48 | 74 | 32.8 | > 100 | – | – | – | – | – | – | – |
| CC(C)(C)c1ccc(C(O)CCCN2CCC(C(O)(c3ccccc3)c3ccccc3)CC2)cc1 (stereo not drawn) | 2.93 µM and 23.5 µM | 1.08 | 2.27 µM | – | – | – | – | – | 2.92 µM | – | – | – | – | 1.59 µM and 13.8 µM | 1.57 | – | – | – | – | – |
| CN1CCN(Cc2c[nH]c3c2C(=O)c2c(c(O)c4ccccc4c2O)C3=O)CC1 | 26.9 µM | 6.22 | 19 µM | 10.5 | 11.2 | 32.4 µM | – | 27.9 µM | 23.2 µM | 16.4 | – | 25 | 21.9 | 14 µM | 11.1 | 1.92 | 11.1 | 12.5 | 10.3 | 3.98 |
